A melting point compilation (Tetko et al.; mined from patent text by program, amines drawn as free bases though some values may be those of a salt)

melting point | SMILES
145 to 160 °C | CC(=O)Oc1ccc(C(CC(=O)O)CC(=O)OCC(=O)C2CCC3C4CCC5=CC(=O)CCC5(C)C4C4CC23C(O)O4)cc1 (stereo unspecified)
223 to 225 °C | CCOC(=O)c1c(Nc2ccc(Cl)cc2)n[nH]c1C
182 to 186 °C | FC(F)(F)c1nc(-c2ncn3c2nc(N2CCOCC2)c2ccccc23)no1
295 to 297 °C | COc1cc2cc(C(=O)O)oc(=O)c2cc1OC
204 to 206 °C | COC(=O)c1cc(-c2ccc(-c3nccs3)cc2)n(-c2ccc(S(N)(=O)=O)cc2)n1
113 to 115 °C | COc1cccc2c(=O)c(SC)coc12
197 to 199 °C | CCc1nn(-c2ccc(F)cc2)c2cc(C(=O)Nc3c(Cl)cncc3Cl)ccc12
135 to 138 °C | CC1(C(=O)Nc2ccc(S(C)(=O)=O)c(C(F)(F)F)c2)CC1
222 to 224 °C | CCOC(=O)N1CCC(n2c(=O)[nH]c3ccc(C)cc32)CC1
74 to 75 °C | Cc1cc(C)c(CO)c(-c2ccc(F)c(C)c2)c1
114 to 116 °C | CN(C1CC(C)(C)Oc2ccc(OCc3ccccc3)cc21)S(C)(=O)=O (stereo unspecified)
92 °C | O=C(c1ccc(-c2ccc(CBr)cc2)cc1)c1ccc(Cl)cc1Cl
160 °C | O=C(O)C1CCN(c2ncc(NS(=O)(=O)C(F)(F)F)c(NCc3ccccc3)n2)CC1
101 to 103 °C | CC(=O)c1cccc(Oc2ncccc2C(=O)NCC2CCC(C(C)O)CC2)c1 (stereo unspecified)
198 to 199 °C | CC1CCC(Nc2ccccc2)c2ncc(C(=O)O)c(=O)n21 (stereo unspecified)
182 to 185 °C | CN1C2CCCC1CC(NC(=O)c1cccc3oc(-c4ccccc4)nc13)C2 (stereo unspecified)
148 to 149 °C | Cc1cc2cc(CN3CCCC3)cnc2cc1NC(=O)c1ccc(-c2ccccc2F)cc1
106 to 110 °C | CCC1(C)Cc2c(C)c(N3CCN(c4ccc(OC)cc4)CC3)c(C)c(C)c2O1 (stereo unspecified)
145 to 147 °C | CC(C)(C)OC(=O)CN1C(=O)[C@@H](NC(=O)OC(C)(C)C)CCc2ccccc21
127 to 128 °C | CCN1C(=O)C(C(N)=O)(c2ccc(Cl)c(Cl)c2)OS1=O (stereo unspecified)
166 to 168 °C | O=C(NCC1CCCCCC1)c1cc(-c2cccnc2C(=O)O)ccc1Cl
208 to 209 °C | CNC1([C@@H]2CCN(c3c(F)cc4c(=O)c(C(=O)O)cn([C@@H]5C[C@@H]5F)c4c3OC)C2)CC1
154 to 155 °C | Cc1c(NC(=O)c2cc3c(s2)C(=O)CCC3)cccc1-c1cn(C)c(=O)c(Nc2ccc(C3C(=O)N(C)CCN3C)cc2)n1 (stereo unspecified)

melting point | SMILES
209 to 211 °C | Cn1c(=O)oc2c(O)cccc21
83.5 to 84.5 °C | CCCc1c(OCCCOc2cccc3c2CCCC3)ccc2c1OC(CCC(=O)O)(CCC(=O)OCC)CC2=O (stereo unspecified)
190 °C | CN1CCN(C(=O)c2ccc(-c3[nH]nc4c3C(=O)c3c(NC(=O)NC5CNCCO5)cccc3-4)s2)CC1 (stereo unspecified)
247 to 248 °C | O=C(Nc1ccc2oc3c(c2c1)CCCC3)C12CC3CC(CC(C3)C1)C2
240 to 245 °C | Cc1ccc2c(-c3nnn[nH]3)cn(Cc3ccc4oc(-c5nc(C(C)(C)C)cs5)cc4c3)c2c1
58.5 to 59.5 °C | COC(=O)c1ccc(F)c([N+](=O)[O-])c1
225 °C | Nc1ccc(Nc2c(NCc3ccccc3)cc(C(=O)O)cc2S(=O)(=O)Nc2ccccc2N)cc1
224 to 225 °C | O=C(O)Cc1ccc(NC(=O)Nc2ccccc2C(F)(F)F)cc1
141 to 142 °C | COc1ccc(-c2cc(=O)n(C3CCCC3)nc2-c2ccc(OC)cc2)cc1
105 °C | COc1ccc(C=C2CCCN2Cc2ccccc2)cc1OC
114 to 115 °C | CSc1cccc(NCC2CN(C(=O)Oc3ccccc3)CCO2)c1 (stereo unspecified)
192 to 193 °C | CC(=O)Nc1nc(-c2ccc(NS(C)(=O)=O)c(Oc3ccc(F)cc3F)c2)cs1
130 to 132 °C | COc1ccc2c(c1)c(CC(=O)O)c(C)n2C(=O)c1ccc(F)cc1
214 to 216 °C | N#Cc1cnn2c1N(C(=O)CN1CCN(C(=O)Nc3ccc(Cl)c(C(F)(F)F)c3)CC1)CC=C2c1cccc(C(F)(F)F)c1
164 °C | CC(=O)N=c1[nH]c2ccccc2n1C1CCNCC1
96 to 97 °C | Cc1nc(N2CCN(Cc3ccccc3)C2=O)sc1C(=O)NCc1ccncc1
174 to 176 °C | [N-]=[N+]=NC1CC(n2ccc(N)nc2=O)OC1CO (stereo unspecified)
174 to 176 °C | COc1ccc(NC(=O)c2ccc(F)c(F)c2)cc1NCc1cccc(O)c1
181 to 182 °C | CS(=O)(=O)c1ccc(-c2onc3c2-c2ccccc2CC3)cc1
165 °C | CCOC(=O)Cn1c2c([nH]c(=O)c1=O)CCC1=C2C=C(n2ccc(C(=O)NCc3ccc([N+](=O)[O-])cc3)c2)CC1
158 to 160 °C | COc1cccc(-n2c(=O)n(O)c(=O)c3cc(F)c(N4CCN(C)CC4)cc32)c1
115 to 117 °C | O=[N+]([O-])C(=Cc1ccco1)C1=NCCN1CC1CCOC1 (stereo unspecified)

Second part, the compound before the results:

SMILES | melting point
C=CCNc1nc(NC/C=C/c2ccccc2)c2scc(C)c2n1 | 82 to 84 °C
Clc1cc(Cl)nc(-c2ccc(Sc3ccccc3)cc2)n1 | 94 to 97 °C
CC1(C)CC(O)CC(C)(C)N1CC(O)c1ccccc1 (stereo unspecified) | 123 °C
COc1ccc(CSc2nnc(-c3ccc4ncsc4c3)o2)cc1C#N | 181 to 182 °C
CC[C@@H]1CN(c2c(F)c(N)c3c(=O)c(C(=O)O)cn(C4CC4)c3c2F)C[C@H]1NC(=O)OC (relative stereo) | 231 to 232 °C
Cc1cc(SC(C)C)c(NC(=O)CCCCCCSc2nc3ccccc3s2)c(SC(C)C)n1 | 74 to 76 °C
COC(=O)NCCCCC1CCSS1 (stereo unspecified) | 31 to 32 °C
COc1cc(/C=C/CO)cc(OC)c1OCc1ccccc1 | 72 to 73 °C
CCC(C)(C)NC(=S)Nc1cc(F)cc(Cl)c1 | 116 to 118 °C
Cc1nc2cccnc2n(-c2ccc(Cl)cc2)c1=O | 245 to 246 °C
CC(C)(C)c1cc(-n2ccc(=O)[nH]c2=O)cc(Br)c1Cl | > 280 °C
CS(=O)(=O)c1ccc(-c2sc(-c3ccccc3Cl)nc2-c2ccccc2Cl)cc1 | 143 to 147 °C
CCN(CC)c1ccc(NC(=S)N(C)N)cn1 | 147 to 149 °C
N#Cc1ccc(CNCCO)cc1 | < 60 °C
Cc1cc(Cn2nnn(-c3ccc(C(F)(F)F)cc3)c2=O)ccc1NC(=O)c1cccc(I)c1C(=O)NC(C)(C)CS(C)(=O)=O | 108 to 112 °C
COC(=O)N(Cc1nc(-c2ccccc2)c(-c2ccccc2)o1)c1cccc(OCC(=O)O)c1 | 153 to 155 °C
Cc1cc(OCC(F)(F)F)c(Cl)cc1[N+](=O)[O-] | 76 to 79 °C
O=C(c1ccn2c1CSC2c1cccnc1)c1cn(C(=O)NCCc2c[nH]cn2)c2cc(-c3ccc(F)cc3)ccc12 (stereo unspecified) | 156 to 158 °C
COc1ccc(O)c(C=O)c1OC | 53 to 54 °C

SMILES | melting point
CC1(C)Oc2c(N)cccc2C1=O | 80 to 84 °C
Cc1ccc(C)c(OCCC(Cl)C(C)(C)C(=O)O)c1 (stereo unspecified) | 117 to 118 °C
COc1ccc(-c2nc3ccc(OC)cc3c(Br)c2Cl)cc1 | 184 to 185 °C
COc1ccc(N(Cc2cccnc2)S(C)(=O)=O)c(OC)c1 | 117 to 119 °C
COCc1cc(O)c2cccc(OC)c2n1 | 193 to 195 °C
Fc1ccc(-c2[nH]nc(C3=CC4CCCN4CC3)c2-c2ccncc2)cc1 (stereo unspecified) | 204 to 208 °C
O=C(O)C1=CCCN1C(=O)CCSSCCC(=O)N1CCC=C1C(=O)O | 158 to 160 °C
CCCNC(=O)C(C)(C)N=NC(C)(C)C(=O)NCCC | 65 °C
Nn1cnc2c(Br)csc2c1=O | 181 to 183 °C
O=C(O)CCCCCCCn1nc(-c2ccccc2)c(-c2ccccc2)nc1=O | 111 to 113 °C
O=S1(=O)N=CN(C2CC2)c2cc(Br)c(F)cc21 | 218 to 219 °C
Nc1cc(Cl)c(I)c(Cl)c1 | 147 to 148 °C
COc1cc2[nH]c(=O)c(-c3csc(-c4cccnc4)n3)c(N)c2cc1OC | > 250 °C
CCCCCCCCOC(=O)Nc1ccccc1C1Cc2ccccc2N1 (stereo unspecified) | 99 to 102 °C
O=[N+]([O-])c1ccccc1OC1OC(COP(=O)(O)O)C(O)C(O)C1O (stereo unspecified) | 181 to 183 °C
CCCCCCC(O)Cn1ccnc1 (stereo unspecified) | 44 to 45.5 °C
Nc1ncc(Oc2ccc(Cl)cc2)c(N2CCN(CCO)CC2)n1 | 121 to 123 °C
CC(=O)NCCOc1ccc([N+](=O)[O-])cc1O | 165 °C
COc1ccc(F)cc1C(C)(C)CC(=O)C(=O)O | 58 to 60 °C

SMILES | melting point
CC1(C)SC(=O)N(Cc2ccccc2[N+](=O)[O-])C1=O | 72.3 to 73.2 °C
Cc1cc(-c2ccc(-c3ccccc3)c(-c3ccc4c(c3)C(C)(C)CCC4(C)C)c2)ccc1C(=O)O | 130 to 132 °C
CCc1ccc(CSc2nc(C)cc(=O)[nH]2)nc1 | 127 to 128 °C
CCCCC(=N)NC(=S)Nc1cccc(Cl)c1 | 142 to 145 °C
N#CC1=C(C2CC(=O)N(Cc3ccccc3)C2)Nc2n[nH]cc2C1c1ccccc1Cl (stereo unspecified) | > 230 °C
CCOC(=O)Cn1c2cccccc-2c(C(=O)OCC)c1=O | 115 to 120 °C
CCOC(=O)C1=C(C)NN=C(CC)C1c1ccccc1 (stereo unspecified) | 109 °C
Cc1cccc2c(Nc3ccc(OCCN(CCCl)CCCl)cc3)c3cccc(C(=O)NCCN(C)C)c3nc12 | 185 to 186 °C
NC(=O)NCCSCC(=O)O | 135 °C
CC1(C)Cc2sc(C(=O)O)cc2C1=O | 124 to 125 °C
CN(C)CCCN1CCC(O)(c2ccccc2)C(C(=O)c2ccccc2)C1 (stereo unspecified) | 114 to 116 °C
[N-]=[N+]=Nc1ccc(C(=O)OCCOC(=O)CC[C@@H](C(=O)O)n2c3ccccc3c3ccccc32)cc1 | 70 °C
O=c1oc(-c2ccccc2)cc(O)c1N(Cc1ccccc1)Cc1ccccc1 | 130 to 135 °C
CCOCc1nc2c(N)nc3cccnc3c2n1CC1(O)CC1 | 178 to 179 °C
CC(=O)NC(=O)CSCc1ccccc1 | 86 to 87 °C
COC(=O)c1nn(Cc2ccccc2)c2ccccc12 | 72 to 73 °C
Cc1sc2c(Cl)c(Cl)c(O)cc2c1C | 143 to 144 °C
O=[N+]([O-])c1ccc2nc(CO)[nH]c2c1 | 157 to 162 °C
